Data from ChEMBL document CHEMBL1121424, “Orally active cephalosporins and penicillins” (J Med Chem, 1980).
≈ marks a conversion by molar mass, not a printed value.

Test system: Escherichia coli
Test: Tested for the antimicrobial activity against Escherichia coli in mice perorally
Type: functional
Conditions: po

SMILES | ED50
Cc1nnc(SCC2=C(C(=O)O)N3C(=O)C(NC(=O)[C@H](N)c4ccc5c(c4)OCO5)C3SC2)s1 (stereo not given in full) | 33.9 mg/kg

Test system: Klebsiella pneumoniae
Test: Tested for inhibition of visible growth of Klebsiella pneumoniae
Type: functional
Conditions: not given

MIC | SMILES
3.1 µg/mL (≈ 8.92 µM) | CC1=C(C(=O)O)N2C(=O)[C@@H](NC(=O)[C@H](N)c3ccccc3)[C@H]2SC1 [CEPHALEXIN ANHYDROUS]
3.1 µg/mL (≈ 6.13 µM) | Cn1nnnc1SCC1=C(C(=O)O)N2C(=O)C(NC(=O)[C@H](N)c3ccc4c(c3)OCO4)C2SC1 (stereo not given in full)
6.2 µg/mL (≈ 11.9 µM) | Cc1nnc(SCC2=C(C(=O)O)N3C(=O)C(NC(=O)[C@H](N)c4ccc5c(c4)OCO5)C3SC2)s1 (stereo not given in full)

Test system: Staphylococcus aureus
Test: Tested for the antimicrobial activity against Staphylococcus aureus
Type: functional
Conditions: not given

SMILES | ED50
Cc1nnc(SCC2=C(C(=O)O)N3C(=O)C(NC(=O)[C@H](N)c4ccc5c(c4)OCO5)C3SC2)s1 (stereo not given in full) | 0.29 mg/kg

Test system: Streptococcus pyogenes
Test: Tested for inhibition of visible growth of Streptococcus pyogenes
Type: functional
Conditions: not given

MIC | SMILES
0.4 µg/mL (≈ 1.15 µM) | CC1=C(C(=O)O)N2C(=O)[C@@H](NC(=O)[C@H](N)c3ccccc3)[C@H]2SC1 [CEPHALEXIN ANHYDROUS]
0.05 µg/mL (≈ 0.0989 µM) | Cn1nnnc1SCC1=C(C(=O)O)N2C(=O)C(NC(=O)[C@H](N)c3ccc4c(c3)OCO4)C2SC1 (stereo not given in full)
0.1 µg/mL (≈ 0.192 µM) | Cc1nnc(SCC2=C(C(=O)O)N3C(=O)C(NC(=O)[C@H](N)c4ccc5c(c4)OCO5)C3SC2)s1 (stereo not given in full)

Test system: not listed separately
Test: (§1) Tested for the antimicrobial activity against Salmonella schottmuelleri in mice
Type: functional
Conditions: not given

SMILES | ED50
Cn1nnnc1SCC1=C(C(=O)O)N2C(=O)C(NC(=O)[C@H](N)c3ccc4c(c3)OCO4)C2SC1 (stereo not given in full) | < 3.1 mg/kg
Cc1nnc(SCC2=C(C(=O)O)N3C(=O)C(NC(=O)[C@H](N)c4ccc5c(c4)OCO5)C3SC2)s1 (stereo not given in full) | 8 mg/kg

Test system: Staphylococcus aureus
Test: Tested for the antimicrobial activity against Staphylococcus aureus, benzyl-penicillin sensitive in mice, perorally
Type: functional
Conditions: po

SMILES | ED50
Cc1nnc(SCC2=C(C(=O)O)N3C(=O)C(NC(=O)[C@H](N)c4ccc5c(c4)OCO5)C3SC2)s1 (stereo not given in full) | 0.8 mg/kg

Test system: not listed separately
Test: Tested for the peak time in mice following 11.8 mg/kg, oral (administered as the sodium salt dissolved in H2O)
Type: ADME, organism-based
Design: dose 11.8 mg/kg, route oral
Conditions: mouse, in vivo, read-out: Peak time (converted)

Tmax | SMILES
30 min | Cc1nnc(SCC2=C(C(=O)O)N3C(=O)C(NC(=O)[C@H](N)c4ccc5c(c4)OCO5)C3SC2)s1 (stereo not given in full)

Test system: Escherichia coli
Test: Tested for inhibition of visible growth of Escherichia coli
Type: functional
Conditions: not given

MIC | SMILES
6.2 µg/mL (≈ 17.8 µM) | CC1=C(C(=O)O)N2C(=O)[C@@H](NC(=O)[C@H](N)c3ccccc3)[C@H]2SC1 [CEPHALEXIN ANHYDROUS]
3.1 µg/mL (≈ 6.13 µM) | Cn1nnnc1SCC1=C(C(=O)O)N2C(=O)C(NC(=O)[C@H](N)c3ccc4c(c3)OCO4)C2SC1 (stereo not given in full)
12.5 µg/mL (≈ 24 µM) | Cc1nnc(SCC2=C(C(=O)O)N3C(=O)C(NC(=O)[C@H](N)c4ccc5c(c4)OCO5)C3SC2)s1 (stereo not given in full)

Test system: Escherichia coli
Test: Tested for the antimicrobial activity against Escherichia coli in mice
Type: functional
Conditions: not given

SMILES | ED50
Cn1nnnc1SCC1=C(C(=O)O)N2C(=O)C(NC(=O)[C@H](N)c3ccc4c(c3)OCO4)C2SC1 (stereo not given in full) | 2.1 mg/kg
Cc1nnc(SCC2=C(C(=O)O)N3C(=O)C(NC(=O)[C@H](N)c4ccc5c(c4)OCO5)C3SC2)s1 (stereo not given in full) | 10.6 mg/kg

Test system: Streptococcus pneumoniae
Test: Tested for inhibition of visible growth of Streptococcus pneumoniae
Type: functional
Conditions: not given

MIC | SMILES
1.6 µg/mL (≈ 4.61 µM) | CC1=C(C(=O)O)N2C(=O)[C@@H](NC(=O)[C@H](N)c3ccccc3)[C@H]2SC1 [CEPHALEXIN ANHYDROUS]
0.1 µg/mL (≈ 0.198 µM) | Cn1nnnc1SCC1=C(C(=O)O)N2C(=O)C(NC(=O)[C@H](N)c3ccc4c(c3)OCO4)C2SC1 (stereo not given in full)
0.1 µg/mL (≈ 0.192 µM) | Cc1nnc(SCC2=C(C(=O)O)N3C(=O)C(NC(=O)[C@H](N)c4ccc5c(c4)OCO5)C3SC2)s1 (stereo not given in full)

Test system: Enterococcus faecalis
Test: Tested for inhibition of visible growth of Streptococcus faecalis
Type: functional
Conditions: not given

MIC | SMILES
≥ 100 µg/mL | CC1=C(C(=O)O)N2C(=O)[C@@H](NC(=O)[C@H](N)c3ccccc3)[C@H]2SC1 [CEPHALEXIN ANHYDROUS]
50 µg/mL (≈ 98.9 µM) | Cn1nnnc1SCC1=C(C(=O)O)N2C(=O)C(NC(=O)[C@H](N)c3ccc4c(c3)OCO4)C2SC1 (stereo not given in full)
50 µg/mL (≈ 95.9 µM) | Cc1nnc(SCC2=C(C(=O)O)N3C(=O)C(NC(=O)[C@H](N)c4ccc5c(c4)OCO5)C3SC2)s1 (stereo not given in full)

Test system: Proteus mirabilis
Test: Tested for inhibition of visible growth of Proteus mirabilis
Type: functional
Conditions: not given

MIC | SMILES
12.5 µg/mL (≈ 36 µM) | CC1=C(C(=O)O)N2C(=O)[C@@H](NC(=O)[C@H](N)c3ccccc3)[C@H]2SC1 [CEPHALEXIN ANHYDROUS]
25 µg/mL (≈ 49.5 µM) | Cn1nnnc1SCC1=C(C(=O)O)N2C(=O)C(NC(=O)[C@H](N)c3ccc4c(c3)OCO4)C2SC1 (stereo not given in full)
> 100 µg/mL | Cc1nnc(SCC2=C(C(=O)O)N3C(=O)C(NC(=O)[C@H](N)c4ccc5c(c4)OCO5)C3SC2)s1 (stereo not given in full)

Test system: not listed separately
Test: Tested for inhibition of visible growth of Salmonella schottmuelleri
Type: functional
Conditions: not given

MIC | SMILES
3.1 µg/mL (≈ 8.92 µM) | CC1=C(C(=O)O)N2C(=O)[C@@H](NC(=O)[C@H](N)c3ccccc3)[C@H]2SC1 [CEPHALEXIN ANHYDROUS]
0.8 µg/mL (≈ 1.58 µM) | Cn1nnnc1SCC1=C(C(=O)O)N2C(=O)C(NC(=O)[C@H](N)c3ccc4c(c3)OCO4)C2SC1 (stereo not given in full)
1.6 µg/mL (≈ 3.07 µM) | Cc1nnc(SCC2=C(C(=O)O)N3C(=O)C(NC(=O)[C@H](N)c4ccc5c(c4)OCO5)C3SC2)s1 (stereo not given in full)

Test system: Staphylococcus aureus
Test: Tested for inhibition of visible growth of Staphylococcus aureus
Type: functional
Conditions: not given

MIC | SMILES
3.1 µg/mL (≈ 8.92 µM) | CC1=C(C(=O)O)N2C(=O)[C@@H](NC(=O)[C@H](N)c3ccccc3)[C@H]2SC1 [CEPHALEXIN ANHYDROUS]
1.6 µg/mL (≈ 3.16 µM) | Cn1nnnc1SCC1=C(C(=O)O)N2C(=O)C(NC(=O)[C@H](N)c3ccc4c(c3)OCO4)C2SC1 (stereo not given in full)
3.1 µg/mL (≈ 5.94 µM) | Cc1nnc(SCC2=C(C(=O)O)N3C(=O)C(NC(=O)[C@H](N)c4ccc5c(c4)OCO5)C3SC2)s1 (stereo not given in full)

Test system: Staphylococcus aureus
Test: Tested for inhibition of visible growth of Staphylococcus aureus, benzyl-penicillin sensitive
Type: functional
Conditions: not given

MIC | SMILES
0.8 µg/mL (≈ 2.3 µM) | CC1=C(C(=O)O)N2C(=O)[C@@H](NC(=O)[C@H](N)c3ccccc3)[C@H]2SC1 [CEPHALEXIN ANHYDROUS]
0.2 µg/mL (≈ 0.396 µM) | Cn1nnnc1SCC1=C(C(=O)O)N2C(=O)C(NC(=O)[C@H](N)c3ccc4c(c3)OCO4)C2SC1 (stereo not given in full)
0.2 µg/mL (≈ 0.383 µM) | Cc1nnc(SCC2=C(C(=O)O)N3C(=O)C(NC(=O)[C@H](N)c4ccc5c(c4)OCO5)C3SC2)s1 (stereo not given in full)

Test system: not listed separately
Test: tested for the peak time in mice following 6.9 mg/kg, oral (administered as the hydrochloride salt dissolved in H2O)
Type: ADME, organism-based
Design: dose 6.9 mg/kg, route oral
Conditions: mouse, in vivo, read-out: Peak time (converted)

Tmax | SMILES
30 min | Cc1nnc(SCC2=C(C(=O)O)N3C(=O)C(NC(=O)[C@H](N)c4ccc5c(c4)OCO5)C3SC2)s1 (stereo not given in full)

Test system: Streptococcus pneumoniae
Test: (§2) Tested for the antimicrobial activity against Streptococcus pneumoniae in mice
Type: functional
Conditions: not given

SMILES | ED50
Cn1nnnc1SCC1=C(C(=O)O)N2C(=O)C(NC(=O)[C@H](N)c3ccc4c(c3)OCO4)C2SC1 (stereo not given in full) | > 10 mg/kg
Cc1nnc(SCC2=C(C(=O)O)N3C(=O)C(NC(=O)[C@H](N)c4ccc5c(c4)OCO5)C3SC2)s1 (stereo not given in full) | 1.3 mg/kg

Test system: Streptococcus pyogenes
Test: (§3) Tested for the antimicrobial activity against Streptococcus pyogenes in mice
Type: functional
Conditions: not given

SMILES | ED50
Cn1nnnc1SCC1=C(C(=O)O)N2C(=O)C(NC(=O)[C@H](N)c3ccc4c(c3)OCO4)C2SC1 (stereo not given in full) | 0.37 mg/kg
Cc1nnc(SCC2=C(C(=O)O)N3C(=O)C(NC(=O)[C@H](N)c4ccc5c(c4)OCO5)C3SC2)s1 (stereo not given in full) | 0.84 mg/kg

Test system: Streptococcus pyogenes
Test: as §3
Type: functional
Conditions: not given

SMILES | ED50
Cn1nnnc1SCC1=C(C(=O)O)N2C(=O)C(NC(=O)[C@H](N)c3ccc4c(c3)OCO4)C2SC1 (stereo not given in full) | 0.14 mg/kg
Cc1nnc(SCC2=C(C(=O)O)N3C(=O)C(NC(=O)[C@H](N)c4ccc5c(c4)OCO5)C3SC2)s1 (stereo not given in full) | 0.23 mg/kg

Test system: Streptococcus pneumoniae
Test: as §2
Type: functional
Conditions: not given

SMILES | ED50
Cn1nnnc1SCC1=C(C(=O)O)N2C(=O)C(NC(=O)[C@H](N)c3ccc4c(c3)OCO4)C2SC1 (stereo not given in full) | 0.74 mg/kg
Cc1nnc(SCC2=C(C(=O)O)N3C(=O)C(NC(=O)[C@H](N)c4ccc5c(c4)OCO5)C3SC2)s1 (stereo not given in full) | 0.79 mg/kg

Test system: not listed separately
Test: in vivo
Conditions: mouse, po, 43 mg/kg
Description: Tested for the peak time in mice following 43 mg/kg oral dose of cephalosporin

Tmax | SMILES
15 min | CC1=C(C(=O)O)N2C(=O)[C@@H](NC(=O)[C@H](N)c3ccccc3)[C@H]2SC1 [CEPHALEXIN ANHYDROUS]

Test system: not listed separately
Test: as §1
Type: functional
Conditions: not given

SMILES | ED50
Cn1nnnc1SCC1=C(C(=O)O)N2C(=O)C(NC(=O)[C@H](N)c3ccc4c(c3)OCO4)C2SC1 (stereo not given in full) | 16 mg/kg
Cc1nnc(SCC2=C(C(=O)O)N3C(=O)C(NC(=O)[C@H](N)c4ccc5c(c4)OCO5)C3SC2)s1 (stereo not given in full) | 40 mg/kg

Test system: Enterobacter cloacae
Test: Tested for inhibition of visible growth of Enterobacter cloacae
Type: functional
Conditions: not given

MIC | SMILES
25 µg/mL (≈ 72 µM) | CC1=C(C(=O)O)N2C(=O)[C@@H](NC(=O)[C@H](N)c3ccccc3)[C@H]2SC1 [CEPHALEXIN ANHYDROUS]
6.2 µg/mL (≈ 12.3 µM) | Cn1nnnc1SCC1=C(C(=O)O)N2C(=O)C(NC(=O)[C@H](N)c3ccc4c(c3)OCO4)C2SC1 (stereo not given in full)
25 µg/mL (≈ 47.9 µM) | Cc1nnc(SCC2=C(C(=O)O)N3C(=O)C(NC(=O)[C@H](N)c4ccc5c(c4)OCO5)C3SC2)s1 (stereo not given in full)

Test system: Mus musculus
Test: Tested for the antimicrobial activity against […], benzyl-penicillin sensitive in mice, subcutaneously
Type: functional
Conditions: sc

SMILES | ED50
Cn1nnnc1SCC1=C(C(=O)O)N2C(=O)C(NC(=O)[C@H](N)c3ccc4c(c3)OCO4)C2SC1 (stereo not given in full) | 0.31 mg/kg

Test system: Klebsiella aerogenes
Test: Tested for inhibition of visible growth of Enterobacter aerogenes
Type: functional
Conditions: not given

MIC | SMILES
25 µg/mL (≈ 72 µM) | CC1=C(C(=O)O)N2C(=O)[C@@H](NC(=O)[C@H](N)c3ccccc3)[C@H]2SC1 [CEPHALEXIN ANHYDROUS]
3.1 µg/mL (≈ 6.13 µM) | Cn1nnnc1SCC1=C(C(=O)O)N2C(=O)C(NC(=O)[C@H](N)c3ccc4c(c3)OCO4)C2SC1 (stereo not given in full)
25 µg/mL (≈ 47.9 µM) | Cc1nnc(SCC2=C(C(=O)O)N3C(=O)C(NC(=O)[C@H](N)c4ccc5c(c4)OCO5)C3SC2)s1 (stereo not given in full)

Species on record: Mus musculus
Test: Tested for the antimicrobial activity against Staphylococcus aureus, benzyl-penicillin sensitive in mice, perorally
Conditions: po

SMILES | ED50
Cn1nnnc1SCC1=C(C(=O)O)N2C(=O)C(NC(=O)[C@H](N)c3ccc4c(c3)OCO4)C2SC1 (stereo not given in full) | > 2 mg/kg
